Laboratory results from PMC6981941 (International Journal of Molecular Sciences, 2019).

What was measured:
YpHddC [1] = molecular target: T1, YpHddC (Yersinia pseudotuberculosis, UniProt Q8GJ90)
T1 construct: gene hddC

YpHddC [2] = molecular target: T1, YpHddC; remark: listed apart in the source

T1 sequence (Q8GJ90 1-225 limits assumed): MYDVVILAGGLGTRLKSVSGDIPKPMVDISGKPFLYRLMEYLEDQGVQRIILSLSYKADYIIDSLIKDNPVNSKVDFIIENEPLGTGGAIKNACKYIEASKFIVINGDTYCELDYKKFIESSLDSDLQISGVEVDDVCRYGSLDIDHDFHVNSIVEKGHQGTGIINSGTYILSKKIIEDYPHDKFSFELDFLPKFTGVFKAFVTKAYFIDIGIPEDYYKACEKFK

In the case of Nc1nc2c(ncn2[C@@H]2O[C@H](COP(=O)(O)OP(N)(=O)O)[C@@H](O)[C@H]2O)c(=O)[nH]1 [GMPPN], the “X-ray crystal structure, 1.55 Å” value (YpHddC [1]) is reported as “The extra densities were well matched with one magnesium, one GMPPN (Figure A1)”.
For O=P(O)(O)O[C@H]1O[C@H](CO)[C@@H](O)[C@H](O)[C@@H]1O [αM1P], the “malachite green assay with pyrophosphatase” value (YpHddC [2]) was “we used α-D-Mannose-1-phosphate (αM1P) purchased from Sigma for a substrate”.
Nc1nc2c(ncn2[C@@H]2O[C@H](COP(=O)(O)OP(=O)(O)OP(=O)(O)O)[C@@H](O)[C@H]2O)c(=O)[nH]1 [GTP] was tested, and the “malachite green assay with pyrophosphatase” value (YpHddC [2]) was “The main molecular property of YpHddC is its GTP preference”.
